PubChem BioAssay AID328 (DTP/NCI, 2004)
Values joined by “and” are separate entries in the source; they are usually repeats but may differ in a detail not shown here. Identical values can stand only once. Inconclusive results and toxic doses are left out.

Test system: BDF1 mice, P388 leukemia ip, median survival T/C
Experiment: NCI In Vivo Anticancer Drug Screen. Data for tumor model P388 Leukemia (intraperitoneal) in B6D2F1 (BDF1) mice
Conditions: endpoint: median survival time, higher = longer survival
In short: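 Survival ratio, drug arm over vehicle arm, in mice with a transplanted tumour.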

[1] = dose: 25.0 mg/kg/injection, schedule: Q04DX003 (ip), vehicle: saline with Tween-80
[2] = dose: 50.0 mg/kg/injection, schedule: Q04DX003 (ip), vehicle: saline with Tween-80
[3] = dose: 100.0 mg/kg/injection, schedule: Q04DX003 (ip), vehicle: saline with Tween-80
[4] = dose: 200.0 mg/kg/injection, schedule: Q04DX003 (ip), vehicle: saline with Tween-80
[5] = dose: 100.0 mg/kg/injection, schedule: Q01DX009 (ip), vehicle: Klucel (hydroxypropylcellulose) (HPC)
[6] = dose: 400.0 mg/kg/injection, schedule: Q01DX009 (ip), vehicle: Klucel (hydroxypropylcellulose) (HPC)
[7] = dose: 100.0 mg/kg/injection, schedule: Q01DX009 (ip), vehicle: saline
[8] = dose: 400.0 mg/kg/injection, schedule: Q01DX009 (ip), vehicle: saline
[9] = dose: 6.25 mg/kg/injection, schedule: Q01DX009 (ip), vehicle: saline
[10] = dose: 12.5 mg/kg/injection, schedule: Q01DX009 (ip), vehicle: saline
[11] = dose: 25.0 mg/kg/injection, schedule: Q01DX009 (ip), vehicle: saline
[12] = dose: 25.0 mg/kg/injection, schedule: Q04DX003 (ip), vehicle: saline
[13] = dose: 50.0 mg/kg/injection, schedule: Q01DX009 (ip), vehicle: saline
[14] = dose: 50.0 mg/kg/injection, schedule: Q04DX003 (ip), vehicle: saline
[15] = dose: 100.0 mg/kg/injection, schedule: Q04DX003 (ip), vehicle: saline
[16] = dose: 200.0 mg/kg/injection, schedule: Q04DX003 (ip), vehicle: saline
[17] = dose: 400.0 mg/kg/injection, schedule: Q04DX003 (ip), vehicle: saline
[18] = dose: 50.0 mg/kg/injection, schedule: Q01DX009 (ip), vehicle: saline with Tween-80
[19] = dose: 100.0 mg/kg/injection, schedule: Q01DX009 (ip), vehicle: saline with Tween-80
[20] = dose: 200.0 mg/kg/injection, schedule: Q01DX009 (ip), vehicle: saline with Tween-80
[21] = dose: 200.0 mg/kg/injection, schedule: Q01DX001 (ip), vehicle: Klucel (hydroxypropylcellulose) (HPC)
[22] = dose: 50.0 mg/kg/injection, schedule: Q04DX003 (ip), vehicle: Klucel (hydroxypropylcellulose) (HPC)
[23] = dose: 200.0 mg/kg/injection, schedule: Q01DX009 (ip), vehicle: Klucel (hydroxypropylcellulose) (HPC)
[24] = dose: 0.12 mg/kg/injection, schedule: Q01DX009 (ip), vehicle: saline
[25] = dose: 0.25 mg/kg/injection, schedule: Q01DX009 (ip), vehicle: saline
[26] = dose: 0.5 mg/kg/injection, schedule: Q01DX009 (ip), vehicle: saline

O=C(CC(c1ccccc1)c1c(O)c2ccccc2oc1=O)c1ccccc1 (stereo not given)
T/C (dose: 0.39 mg/kg/injection, schedule: Q01DX009 (ip), vehicle: saline with Tween-80): 108 % of control | T/C (dose: 0.78 mg/kg/injection, schedule: Q01DX009 (ip), vehicle: saline with Tween-80): 106 % of control | T/C (dose: 1.56 mg/kg/injection, schedule: Q01DX009 (ip), vehicle: saline with Tween-80): 97 % of control | T/C (dose: 3.12 mg/kg/injection, schedule: Q01DX009 (ip), vehicle: saline with Tween-80): 90 % of control | T/C (dose: 12.5 mg/kg/injection, schedule: Q04DX003 (ip), vehicle: saline with Tween-80): 120 % of control | T/C [1]: 109 % of control | T/C [2]: 92 % of control | T/C [3]: 101 % of control | T/C [4]: 108 % of control

O=c1oc2c(c(N(c3ccccc3)c3ccccc3)c1Cl)CSc1ccccc1-2
T/C [1]: 100 % of control | T/C [2]: 93 % of control | T/C [3]: 90 % of control

CSc1cccc(NC(C)=O)c1
T/C [5]: 95 % of control | T/C [3]: 104 % of control | T/C [4]: 100 % of control | T/C [6]: 95 % of control | T/C (dose: 400.0 mg/kg/injection, schedule: Q04DX003 (ip), vehicle: saline with Tween-80): 109 % of control

CCCCC(CC)C(=O)[O][Sn]([CH2]CCC)([CH2]CCC)[O]C(=O)C(CC)CCCC (stereo not given)
T/C (dose: 6.25 mg/kg/injection, schedule: Q04DX003 (ip), vehicle: acetone): 91 % of control | T/C (dose: 12.5 mg/kg/injection, schedule: Q04DX003 (ip), vehicle: acetone): 95 % of control

CC1(C)SC2C(NC(=O)Cc3ccccc3)C(=O)N2C1C(=O)O (stereo not given)
T/C [7]: 90 % of control | T/C [8]: 100 % of control

NNC(=O)C1CC1
T/C [9]: 96 % of control | T/C [10]: 107 % of control | T/C [11]: 100 % of control | T/C [12]: 100 % of control | T/C [13]: 100 % of control | T/C [14]: 100 % of control | T/C [15]: 104 % of control

O=C1C=C(Nc2ccc(O)cc2)c2ccccc2C1=O
T/C [9]: 95 % of control | T/C [10]: 104 % of control | T/C [11]: 100 % of control

CC(O)C(C)(C)CO (stereo not given)
T/C [15]: 100 % of control | T/C [16]: 100 % of control | T/C [17]: 100 % of control

CC(=O)N(C)C=C1C(=O)N(C)C(=O)N(C)C1=O
T/C [18]: 102 % of control | T/C [19]: 111 % of control | T/C [20]: 92 % of control

CCCCn1c(Cl)c(/C=N\Nc2ccccc2[N+](=O)[O-])c2ccccc21
T/C [21]: 89 % of control

CCC(c1ccc2cc(OC)ccc2c1)C(C(=O)O)C(=O)O (stereo not given)
T/C [22]: 87 % of control

O=C1CSc2ccccc2N1
T/C (dose: 50.0 mg/kg/injection, schedule: Q01DX001 (ip), vehicle: Klucel (hydroxypropylcellulose) (HPC)): 109 % of control | T/C (dose: 100.0 mg/kg/injection, schedule: Q01DX001 (ip), vehicle: Klucel (hydroxypropylcellulose) (HPC)): 100 % of control | T/C [21]: 116 % of control

Cc1nccnc1N
T/C [9]: 94 % of control | T/C [10]: 105 % of control | T/C [11]: 102 % of control | T/C [13]: 102 % of control | T/C [14]: 94 % of control | T/C [7]: 105 % of control | T/C [15]: 98 % of control and 102 % of control | T/C (dose: 150.0 mg/kg/injection, schedule: Q04DX003 (ip), vehicle: saline): 88 % of control | T/C [16]: 100 % of control and 124 % of control | T/C (dose: 300.0 mg/kg/injection, schedule: Q04DX003 (ip), vehicle: saline): 100 % of control

COc1ccc(NC(=O)CC(C)=O)cc1
T/C [9]: 98 % of control | T/C [10]: 91 % of control | T/C [12]: 111 % of control | T/C [13]: 108 % of control | T/C [14]: 102 % of control | T/C [7]: 110 % of control | T/C [15]: 98 % of control | T/C (dose: 200.0 mg/kg/injection, schedule: Q01DX009 (ip), vehicle: saline): 106 % of control | T/C [16]: 116 % of control | T/C [8]: 98 % of control | T/C [17]: 93 % of control

NSc1ccc([N+](=O)[O-])cc1
T/C (dose: 100.0 mg/kg/injection, schedule: Q01DX001 (ip), vehicle: other): 109 % of control

CCC(=O)Nc1cc(Cl)ccc1C
T/C [22]: 118 % of control | T/C [5]: 109 % of control | T/C (dose: 100.0 mg/kg/injection, schedule: Q04DX003 (ip), vehicle: Klucel (hydroxypropylcellulose) (HPC)): 109 % of control | T/C [23]: 90 % of control | T/C (dose: 200.0 mg/kg/injection, schedule: Q04DX003 (ip), vehicle: Klucel (hydroxypropylcellulose) (HPC)): 104 % of control | T/C [6]: 90 % of control | T/C (dose: 400.0 mg/kg/injection, schedule: Q04DX003 (ip), vehicle: Klucel (hydroxypropylcellulose) (HPC)): 100 % of control

COc1nc(Cl)nc(OC)n1
T/C (dose: 25.0 mg/kg/injection, schedule: Q01DX009 (ip), vehicle: saline with Tween-80): 96 % of control | T/C [18]: 97 % of control | T/C [19]: 99 % of control | T/C [20]: 99 % of control

C[n+]1ccccc1/C=C/c1cccc([N+](=O)[O-])c1
T/C (dose: 5.0 mg/kg/injection, schedule: Q04DX003 (ip), vehicle: saline with Tween-80): 95 % of control | T/C (dose: 10.0 mg/kg/injection, schedule: Q04DX003 (ip), vehicle: saline with Tween-80): 104 % of control | T/C (dose: 20.0 mg/kg/injection, schedule: Q04DX003 (ip), vehicle: saline with Tween-80): 109 % of control

Nc1cc(OCc2ccccc2)cc(OCc2ccccc2)c1
T/C (dose: 6.25 mg/kg/injection, schedule: Q01DX009 (ip), vehicle: water): 96 % of control | T/C (dose: 12.5 mg/kg/injection, schedule: Q01DX009 (ip), vehicle: water): 96 % of control and 101 % of control | T/C (dose: 12.5 mg/kg/injection, schedule: Q04DX003 (ip), vehicle: water): 105 % of control | T/C (dose: 25.0 mg/kg/injection, schedule: Q01DX009 (ip), vehicle: water): 99 % of control and 105 % of control | T/C (dose: 25.0 mg/kg/injection, schedule: Q04DX003 (ip), vehicle: water): 99 % of control | T/C (dose: 50.0 mg/kg/injection, schedule: Q01DX009 (ip), vehicle: water): 97 % of control and 98 % of control | T/C (dose: 50.0 mg/kg/injection, schedule: Q04DX003 (ip), vehicle: water): 99 % of control | T/C (dose: 100.0 mg/kg/injection, schedule: Q01DX009 (ip), vehicle: water): 92 % of control and 100 % of control | T/C (dose: 100.0 mg/kg/injection, schedule: Q04DX003 (ip), vehicle: water): 106 % of control and 107 % of control and 108 % of control | T/C (dose: 200.0 mg/kg/injection, schedule: Q04DX003 (ip), vehicle: water): 95 % of control and 96 % of control

CCOC(=O)CN1C=C(C(=O)c2cc3ccccc3[nH]2)CCC1
T/C (dose: 0.06 mg/kg/injection, schedule: Q01DX009 (ip), vehicle: saline): 105 % of control | T/C [24]: 105 % of control | T/C [25]: 105 % of control | T/C [26]: 100 % of control | T/C (dose: 1.0 mg/kg/injection, schedule: Q01DX009 (ip), vehicle: saline): 105 % of control | T/C (dose: 2.0 mg/kg/injection, schedule: Q01DX009 (ip), vehicle: saline): 110 % of control | T/C (dose: 4.0 mg/kg/injection, schedule: Q01DX009 (ip), vehicle: saline): 99 % of control | T/C (dose: 8.0 mg/kg/injection, schedule: Q01DX009 (ip), vehicle: saline): 98 % of control | T/C (dose: 16.0 mg/kg/injection, schedule: Q01DX009 (ip), vehicle: saline): 93 % of control | T/C (dose: 32.0 mg/kg/injection, schedule: Q01DX009 (ip), vehicle: saline): 98 % of control

Cc1cc2no[n+]([O-])c2cc1C
T/C (dose: 50.0 mg/kg/injection, schedule: Q01DX009 (ip), vehicle: Klucel (hydroxypropylcellulose) (HPC)): 109 % of control | T/C [5]: 109 % of control | T/C [23]: 109 % of control

COC(COC(N)=O)C1=C(N2CC2)C(=O)C(C)=C(N2CC2)C1=O (stereo not given)
T/C (dose: 0.03 mg/kg/injection, schedule: Q01DX009 (ip), vehicle: saline): 123 % of control | T/C [24]: 154 % of control | T/C [25]: 190 % of control | T/C [26]: 258 % of control
